Three compounds from patent US20250151812A1, “METHOD AND INHALER FOR PROVIDING TWO OR MORE […] INHALATION” (Syqe Medical Ltd., priority 2018, published 2025) can be followed below.

Values joined by “and” are separate entries in the source; they are usually repeats but may differ in a detail not shown here. Identical values can stand only once.

Type in all cases: physicochemical
Series [1] can be described thus: Bediol strain Cannabis, two heating durations; aerosol analyzed using UPLC (Table 3, FIG. 17B). The conditions noted are these: 180 C., 1.1 L/min; for mg API: in aerosol, 13.5 mg Bediol strain Cannabis; for total (acid + neutral form): sum for the acid and its neutral form, 13.5 mg Bediol. The procedure:
In the following related experiment performed by the inventors, samples having 13.5 mg of Bediol strain Cannabis (Bedrocan, Holland) were tested using two operation profiles and compared to a raw material. The samples were heated to a temperature of 180° C. under an airflow rate of 1.1 liter/minute. In the first operation profile, the heating duration was 1.5 seconds; in the second operation profile, the heating duration was 2.5 seconds. Aerosol was collected, extracted and analyzed using UPLC. As can be observed from this example, under certain conditions, lengthening the heating duration increased the CBD/total THC ratio (from about 0.79 in the first operation profile to about 0.96 in the second operation profile). As can also be observed from this example, under certain conditions, lengthening the heating duration released higher amounts of all active substances tested (CBDA, CBD, THCA, Δ9-THC). (API-active pharmaceutical ingredient).

Series [2] is described as follows: FIG. 6: CBDA/CBD and THCA/Δ9-THC ratios at two operation profiles; aerosol analyzed using UPLC. As to conditions: 13.5 mg cannabis; 180° C., airflow 1 liter/minute; 1.5 seconds versus 2.5 second. Here is the method:
Reference is now made to FIG. 6, which is a bar chart of the ratios between CBDA/CBD and THCA/Δ9-THC received at various operation profiles according to some embodiments of the invention. Samples having 13.5 mg of a defined type of cannabis were tested at two operation profiles. The samples were heated to a temperature of 180° C. under an airflow of 1 liter/minute) for 1.5 seconds and 2.5 second. Aerosol was collected, extracted and analyzed using UPLC.

Series [3] in a line: Effect of airflow rate on decarboxylation of THCA; aerosol from heated Bedrocan cannabis samples analyzed in UPLC. As to conditions: 13.5 mg Bedrocan sample, 185° C., 1620 ms. The procedure: In the following experiment performed by the inventors, the effect of airflow rate on decarboxylation of THCA was tested. 14 samples (7 samples tested in each of the profiles) of 13.5 mg each of Bedrocan strain (Bedrocan, Holland) were heated for 1620 ms to a temperature of 185° C. In a first operation profile (upper table), the rate of flow through the sample was set to 1.1 L/min; in a second operation profile (lower table), the rate of airflow through the sample was set to 0.85 L/min. Aerosol was collected and extracted and analyzed in UPLC (Ultra performance liquid chromatography) for the presence of THCA and Δ9-THC. As can be observed, in this example, under certain conditions, increasing the rate of flow through the sample increased the percentage of THCA in the aerosol. (As shown below, the percentage of THCA was calculated as the amount of THCA divided by the total amount of both THCA and Δ9-THC.) The graph of FIG. 17A presents the results shown in the table below.

A short description of series [4]: Various operation profiles (heating temperature, airflow rate, heating duration); aerosol analyzed in UPLC for THCA and Δ9-THC. Here is the method:
In another experiment performed by the inventors, various operation profiles were tested. In lines 1-9 of the table below, a change in the heating temperature was tested, while the rate of airflow and the heating duration remained constant. Aerosol was collected and extracted and analyzed in UPLC for the presence of THCA and Δ9-THC. A graph presenting the results obtained for the various heating temperatures is shown in FIG. 7 and further discussed below; in lines 10-14 of the table, a change in the rate of airflow was tested, while the temperature and the heating duration remained constant; in lines 17-19 of the table, a change in the heating duration was tested, while the temperature and rate of airflow remained constant. As can be observed, in this example, under certain conditions, increasing the heating temperature (while maintaining other parameters (flow rate, duration of heating) constant) reduced the percentage of THCA released; lengthening the heating duration (while maintaining other parameters constant) reduced the percentage of THCA released. (As shown below, the percentage of THCA was calculated as the amount of THCA divided by the total amount of both THCA and Δ9-THC.)
Reference is now made to FIG. 7 which is a graph showing the effect of the temperature on the relative amount of THCA vaporized. The experiment procedure and the results are also discussed above and presented in Table 2 Samples having 13.5 mg of a defined type of cannabis were tested by applying air at 1.1 liter/minute for 1.5 seconds at various temperatures from 160°° C. to 200° C. The relative amount of THCA were measured against the total amounts of Δ9-THC+THCA. […] Accordingly, by selecting the temperature and/or the time-temperature profile, the amount of THCA provided during inhalation may be controlled (e.g., selected by the user).

For `C=C(C)[C@@H]1CCC(C)=C[C@H]1c1c(O)cc(CCCCC)cc1O` [CBD, Cannabidiol, reference compound], the “mg API” value is 0.201 mg in series [1] (heating duration 1500 ms) and 0.477 mg in series [1] (heating duration 2500 ms).
As for `C=C(C)[C@@H]1CCC(C)=C[C@H]1c1c(O)cc(CCCCC)c(C(=O)O)c1O` [CBDA, cannabidiolic acid], the “amount of acids left after vaporization, by heating duration” value in series [2] is recorded as “the longer the operation profile the less amount of acids”. Also, the “mg API” value worked out at 0.125 mg in series [1] (heating duration 1500 ms) and 0.188 mg in series [1] (heating duration 2500 ms). In addition, the “total (acid + neutral form)” value in series [1] (heating duration 1500 ms) worked out at 0.311; in series [1] (heating duration 2500 ms) it was 0.642.
In the case of `CCCCCc1cc(O)c2c(c1)OC(C)(C)[C@@H]1CCC(C)=C[C@@H]21` [Δ9-THC, Δ9-tetrahydrocannabinol, reference compound], the “Δ9-THC” value in series [3] (flow rate 0.85 L/min) is 0.521 mg and 0.559 mg and 0.529 mg and 0.486 mg and 0.434 mg and 0.357 mg and 0.365 mg; in series [3] (flow rate 1.1 L/min) it was 0.462 mg and 0.452 mg and 0.445 mg and 0.484 mg and 0.527 mg and 0.431 mg and 0.587 mg; in series [4] (13.5 mg cannabis, 1.1 L/min, 1500 ms, 160° C.) it was 0.220 mg and 0.201 mg and 0.208 mg; in series [4] (13.5 mg cannabis, 1.1 L/min, 1500 ms, 175° C.) it was 0.475 mg and 0.461 mg and 0.478 mg; in series [4] (13.5 mg cannabis, 1.1 L/min, 1500 ms, 200° C.), 0.972 mg and 0.831 mg and 0.790 mg; in series [4] (175 C., 1500 ms, flow 1.2 L/min), 0.467 mg and 0.423 mg. The “Δ9-THC” value in series [4] (175 C., 1500 ms, flow 1.3 L/min) is 0.459 mg and 0.468 mg and 0.440 mg; in series [4] (185° C., 1.1 L/min, heating 600 ms), 0.093 mg; in series [4] (185° C., 1.1 L/min, heating 800 ms) it was 0.315 mg; in series [4] (185° C., 1.1 L/min, heating 1000 ms) it was 0.620 mg. For the same compound, the “mg API” value turned out to be 0.254 mg in series [1] (heating duration 1500 ms) and 0.498 mg in series [1] (heating duration 2500 ms).
